Data set [1] in a line: Intrinsic clearance in rat liver microsomes. The data set is classed as ADME, Microsome. The conditions noted are these: read-out: CLH. (In general: Microsomes from liver hold many membrane-bound enzymes, among them those of drug oxidation.)
Data set [2] can be described thus: Clearance in Wistar-Han rat at 1 mg/kg, iv. Format: ADME, organism-based. Details: dose 1 mg/kg, route intravenous. The conditions noted are these: in vivo.
Data set [3] can be described thus: Volume of distribution at steady state in Wistar-Han rat at 1 mg/kg, iv. The data set is classed as ADME, organism-based. Details: dose 1 mg/kg, route intravenous. The conditions noted are these: in vivo, read-out: Vdss.
The nature of data set [4]: Lipophilicity, log D of the compound by shake-flask method. Format: physicochemical. The conditions noted are these: octanol/water.
Data set [5] in a line: Cmax in Wistar-Han rat at 5 mg/kg, po. Format: ADME, organism-based. The conditions noted are these: in vivo. Details: dose 5 mg/kg, route oral.
Data set [6] can be described thus: Oral bioavailability in Wistar-Han rat at 5 mg/kg. The data set is classed as ADME, organism-based. The conditions noted are these: in vivo.
Data set [7] is described as follows: Intrinsic clearance in human liver microsomes. Format: ADME, Microsome. The conditions noted are these: read-out: CLH.
Data set [8] can be described thus: Half life in Wistar-Han rat at 1 mg/kg, iv. The conditions noted are these: in vivo. Format: ADME, organism-based. Details: dose 1 mg/kg, route intravenous.
Data set [9] in a line: AUC in Wistar-Han rat at 5 mg/kg, po. The arrangement: dose 5 mg/kg, route oral. The conditions noted are these: plasma. Format: ADME, organism-based.

Turning to `CC(C)Oc1cc(Oc2ccc(S(C)(=O)=O)cc2)cc(-c2nccc(=O)[nH]2)c1`, the CLint scaled was 105 mL/min/kg in [1] and below 9.8 mL/min/kg in [7]. Moreover, the clearance (as a rule, a measure of how efficiently the substance is removed, as volume per time) in data set [2] amounted to 61 mL/min/kg. Further, the Vd in data set [3] was 6.41 L/kg. Moreover, the logD (usually lipophilicity at a set pH, counting ionised and neutral species) in data set [4] was determined as 2.14. Besides, the Cmax (in general, the peak of the concentration-time curve) in data set [5] was determined as 150 ng/mL. In addition, the bioavailability (commonly the share of a dose that reaches the circulation, judged against a reference dose that is usually intravenous) in data set [6] was found to be 29%. In addition, in [8], the half-life – broadly, the time needed for the level to fall by half in the phase considered – was 1.5 h. The AUC – broadly, the area under the concentration-time curve, a measure of exposure – in [9] worked out at 703 ng·h/mL.

Take `Cc1cnc(-c2cc(Oc3ccc(S(C)(=O)=O)cc3)cc(OC(C)C)c2)[nH]c1=O`: the figures for the CLint scaled in data set [1] and in data set [7] were 189 mL/min/kg and below 8 mL/min/kg, respectively. The same molecule gave a clearance in data set [2] of 13 mL/min/kg. Moreover, the Vd in [3] was determined as 0.746 L/kg. Also, in data set [4], the logD amounted to 2.68. The same molecule registered a Cmax in data set [5] of 31 ng/mL. The molecule also gave a bioavailability in data set [6] of 2%. In data set [8], this molecule gave a half-life of 5.3 h. Further, the AUC in data set [9] was 141 ng·h/mL.

`Cc1cc(=O)[nH]c(-c2cc(Oc3ccc(S(C)(=O)=O)cc3)cc(OC(C)C)c2)n1`: the CLint scaled was 96 mL/min/kg in [1] and below 8 mL/min/kg in data set [7]. The molecule also registered a logD in [4] of 2.43.

With `CCc1cnc(-c2cc(Oc3ccc(S(C)(=O)=O)cc3)cc(OC(C)C)c2)[nH]c1=O`, the values for the CLint scaled in [1] and in data set [7] were 171 mL/min/kg and below 8 mL/min/kg, respectively. In [4], this molecule had a pH-dependent lipophilicity (logD) of 3.11.

For `COc1cnc(-c2cc(Oc3ccc(S(C)(=O)=O)cc3)cc(OC(C)C)c2)[nH]c1=O`, the CLint scaled in [1] is below 25.4 mL/min/kg; in [7] it was below 8 mL/min/kg. In addition, the logD in [4] came to 2.21.

For `CC(C)Oc1cc(Oc2ccc(S(C)(=O)=O)cc2)cc(-c2ncc(Cl)c(=O)[nH]2)c1`, the CLint scaled in data set [1] was below 25.4 mL/min/kg; in [7], below 8 mL/min/kg. The molecule also yielded a logD in [4] of 2.04.

The molecule `CNS(=O)(=O)c1ccc(Oc2cc(OC(C)C)cc(-c3nccc(=O)[nH]3)c2)cc1` came in with a logD in data set [4] of 2.63. For the same molecule, the CLint scaled in [7] was below 8 mL/min/kg.

On to `CC(C)Oc1cc(Oc2cnc(C(=O)N(C)C)c(F)c2)cc(-c2nccc(=O)[nH]2)c1`, for which the results for the CLint scaled in [1] and in data set [7] were 102 mL/min/kg and 8.3 mL/min/kg, respectively. Moreover, the logD in data set [4] was 1.54.

Regarding `CC(C)Oc1cc(Oc2cnc(C(=O)N(C)C)nc2)cc(-c2nccc(=O)[nH]2)c1`, the CLint scaled in [1] was below 25.4 mL/min/kg; in data set [7] it was below 8 mL/min/kg. In addition, in data set [4], the logD worked out at 0.97.

Consider `CC(C)Oc1cc(Oc2cnc(C(=O)N(C)C)cn2)cc(-c2nccc(=O)[nH]2)c1`, for which the figures for the CLint scaled in data set [1] and in data set [7] were 47 mL/min/kg and below 8 mL/min/kg, respectively. In data set [4], this molecule returned a logD of 1.34.

In the case of `CCC(CC)Oc1cc(Oc2cnc(C(=O)N(C)C)nc2)cc(-c2nccc(=O)[nH]2)c1`, the CLint scaled turned out to be 91 mL/min/kg in data set [1] and 22.4 mL/min/kg in data set [7]. Further, the clearance in [2] was found to be 44 mL/min/kg. Besides, in data set [3], the Vd was 5.79 L/kg. Besides, the logD in data set [4] came to 1.91. In addition, the Cmax in data set [5] is 412 ng/mL. In data set [6], this molecule gave a bioavailability of 32%. Also, the half-life in data set [8] was 6 h. Besides, the AUC in [9] came to 580 ng·h/mL.

`CN(C)C(=O)c1ncc(Oc2cc(OC3CCCC3)cc(-c3nccc(=O)[nH]3)c2)cn1`: the CLint scaled in [1] was 106 mL/min/kg; in data set [7], below 8 mL/min/kg. Besides, the logD in data set [4] worked out at 1.74.

On to `C[C@@H](CO)Oc1cc(Oc2cnc(C(=O)N(C)C)nc2)cc(-c2nccc(=O)[nH]2)c1`, for which the CLint scaled in data set [1] is 26 mL/min/kg; in [7] it was below 8 mL/min/kg. Besides, the logD in [4] is -0.02.

For `COC[C@H](C)Oc1cc(Oc2cnc(C(=O)N(C)C)nc2)cc(-c2nccc(=O)[nH]2)c1`, the CLint scaled in [1] is 38 mL/min/kg; in data set [7], below 8 mL/min/kg. The molecule also had a logD in [4] of 0.43.

Turning to `Cc1cnc(-c2cc(Oc3cnc(C(=O)N(C)C)nc3)cc(OC(C)C)c2)[nH]c1=O`, the CLint scaled is below 25.4 mL/min/kg in data set [1] and below 8 mL/min/kg in data set [7]. Further, the logD in data set [4] was 1.48.

As to `COC[C@H](C)Oc1cc(Oc2cnc(C(=O)N(C)C)cn2)cc(-c2nccc(=O)[nH]2)c1`, the CLint scaled in data set [1] was below 25.4 mL/min/kg; in data set [7] it was below 8 mL/min/kg. Also, the logD in data set [4] worked out at 0.81.

`Cc1cnc(-c2cc(Oc3ccc(S(=O)(=O)N(C)C)cc3)cc(O[C@@H](C)CO)c2)[nH]c1=O`: the logD in [4] is 2.26. In data set [7], the CLint scaled worked out at 12 mL/min/kg.

As to `CNS(=O)(=O)c1ccc(Oc2cc(O[C@@H](C)CO)cc(-c3ncc(C)c(=O)[nH]3)c2)cc1`, the results for the CLint scaled in data set [1] and in [7] were below 25.4 mL/min/kg and below 8 mL/min/kg, respectively. In [4], this molecule gave a logD of 2.01.

As for `CCS(=O)(=O)c1ccc(Oc2cc(O[C@@H](C)CO)cc(-c3nccc(=O)[nH]3)c2)cc1`, the results for the CLint scaled in [1] and in data set [7] were below 25.4 mL/min/kg and below 8 mL/min/kg, respectively. The molecule also gave a clearance in data set [2] of 19 mL/min/kg. Moreover, the Vd in [3] turned out to be 0.746 L/kg. This molecule displayed a logD in data set [4] of 1.42. Also, the concentration in [5] peaked (Cmax) at 74 ng/mL. Also, the bioavailability in data set [6] was found to be 6%. The same molecule had a half-life in data set [8] of 1.8 h. Further, the AUC in data set [9] worked out at 253 ng·h/mL.

For the molecule `Cc1ccc(NC(=O)c2cc(Oc3ccc(S(C)(=O)=O)cc3)cc(OC(C)C)c2)nc1`, the CLint scaled in [1] came out at 97 mL/min/kg; in data set [7], 17 mL/min/kg. In [4], this molecule registered a logD of 4.05.

As to `CC(C)Oc1cc(Oc2ccc(S(C)(=O)=O)cc2)cc(-c2cccc(=O)[nH]2)c1`, the CLint scaled is 349 mL/min/kg in data set [1] and below 8 mL/min/kg in [7]. For the same molecule, the pH-dependent lipophilicity (logD) in data set [4] came to 2.82.

As to `CC(C)Oc1cc(Oc2ccc(S(C)(=O)=O)cc2)cc(-c2cncc(=O)[nH]2)c1`, the CLint scaled in data set [1] was 61 mL/min/kg; in data set [7] it was 11 mL/min/kg. For the same molecule, the logD in data set [4] amounted to 2.27.

Values taken from ChEMBL document CHEMBL2407069, “Pyrimidone-based series of glucokinase activators with alternative donor-acceptor motif” (Bioorg Med Chem Lett, 2013).
